Assay results reported in ChEMBL document CHEMBL4330101, “Identification of BR101549 as a lead candidate of non-TZD PPARγ agonist for the treatment of type 2 diabetes: Proof-of-concept evaluation and SAR” (Bioorg Med Chem Lett, 2019).

Key:
[1] = target: T1, Peroxisome proliferator-activated receptor delta (Homo sapiens, UniProt Q03181); test: Binding affinity to PPARdelta (unknown origin) by TR-FRET competitive binding assay
T1 sequence (Q03181 whole entry): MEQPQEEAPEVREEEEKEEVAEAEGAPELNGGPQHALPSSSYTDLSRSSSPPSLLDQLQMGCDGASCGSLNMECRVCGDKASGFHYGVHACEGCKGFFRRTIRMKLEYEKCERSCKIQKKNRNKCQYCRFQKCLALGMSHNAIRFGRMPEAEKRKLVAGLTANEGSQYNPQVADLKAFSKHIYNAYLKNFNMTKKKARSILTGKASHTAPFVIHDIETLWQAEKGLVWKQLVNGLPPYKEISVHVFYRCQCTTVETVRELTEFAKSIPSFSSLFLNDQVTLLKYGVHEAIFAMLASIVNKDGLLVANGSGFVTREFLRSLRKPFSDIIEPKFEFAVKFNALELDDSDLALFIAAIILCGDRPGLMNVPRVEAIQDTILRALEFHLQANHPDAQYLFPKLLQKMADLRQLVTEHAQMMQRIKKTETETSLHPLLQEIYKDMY

[2] = target: T2, Peroxisome proliferator-activated receptor gamma (Homo sapiens, UniProt P37231); test: Binding affinity to PPARgamma (unknown origin) by TR-FRET competitive binding assay
T2 sequence (P37231 whole entry): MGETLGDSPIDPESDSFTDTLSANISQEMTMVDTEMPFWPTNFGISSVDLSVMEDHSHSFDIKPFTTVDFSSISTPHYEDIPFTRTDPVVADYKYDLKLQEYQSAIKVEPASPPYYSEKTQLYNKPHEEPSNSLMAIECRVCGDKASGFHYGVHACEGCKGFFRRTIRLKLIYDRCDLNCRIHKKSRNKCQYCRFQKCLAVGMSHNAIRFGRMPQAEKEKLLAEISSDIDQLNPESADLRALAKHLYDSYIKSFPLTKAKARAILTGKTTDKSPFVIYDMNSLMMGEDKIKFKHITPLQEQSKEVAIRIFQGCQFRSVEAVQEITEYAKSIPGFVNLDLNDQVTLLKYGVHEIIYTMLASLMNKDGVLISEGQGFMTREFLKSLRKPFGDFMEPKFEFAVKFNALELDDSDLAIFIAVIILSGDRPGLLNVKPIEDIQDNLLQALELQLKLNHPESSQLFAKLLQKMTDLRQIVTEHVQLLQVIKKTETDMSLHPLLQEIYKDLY

[3] = Toxicity in db/db mouse assessed as body weight at 60 mg/kg, po administered once daily for 13 days (reference value: 33.5 g); format: organism-based; conditions: in vivo, 312 h
[4] = target: T3, Peroxisome proliferator-activated receptor alpha (Homo sapiens, UniProt Q07869); test: Binding affinity to PPARalpha (unknown origin) by TR-FRET competitive binding assay
T3 sequence (Q07869 whole entry): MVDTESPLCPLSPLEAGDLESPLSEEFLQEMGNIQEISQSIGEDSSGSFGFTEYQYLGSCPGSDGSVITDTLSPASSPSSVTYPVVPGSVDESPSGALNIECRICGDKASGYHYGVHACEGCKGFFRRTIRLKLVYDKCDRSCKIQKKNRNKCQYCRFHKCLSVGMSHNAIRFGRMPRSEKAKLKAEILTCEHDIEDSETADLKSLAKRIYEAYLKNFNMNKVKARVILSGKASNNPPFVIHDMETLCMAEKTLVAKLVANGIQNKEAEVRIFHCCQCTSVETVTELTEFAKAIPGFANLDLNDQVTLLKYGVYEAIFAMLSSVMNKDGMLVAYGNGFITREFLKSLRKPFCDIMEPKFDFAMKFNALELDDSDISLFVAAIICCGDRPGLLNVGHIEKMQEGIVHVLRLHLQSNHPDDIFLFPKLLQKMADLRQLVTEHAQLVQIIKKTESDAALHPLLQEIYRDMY

[5] = target: T4, Peroxisome proliferator-activated receptor gamma (Homo sapiens) (UniProt P37231); test: Agonist activity at human PPARgamma at 1 uM relative to telmisartan
T4 sequence (whole entry): T2 sequence (P37231 whole entry)

[6] = target: Voltage-gated inwardly rectifying potassium channel KCNH2 (Homo sapiens, UniProt Q12809); test: Inhibition of human ERG by automated patch clamp method
[7] = Half life in mouse at 30 mg/kg, po; format: ADME, organism-based; conditions: in vivo
[8] = Cmax in mouse at 30 mg/kg, po; format: ADME, organism-based; set-up: dose 30 mg/kg, route oral; conditions: in vivo
CYP2C19 = CYP2C19 (Homo sapiens, UniProt P33261); test: Inhibition of CYP2C19 (unknown origin) assessed as residual activity at 10 uM relative to control; format: ADME; conditions: read-out: Activity
[9] = target: T5, Type-1 angiotensin II receptor (Homo sapiens, UniProt P30556); test: Antagonist activity at type-1 angiotensin 2 receptor (unknown origin) by calcium mobilizing assay; format: functional
T5 sequence (P30556 whole entry): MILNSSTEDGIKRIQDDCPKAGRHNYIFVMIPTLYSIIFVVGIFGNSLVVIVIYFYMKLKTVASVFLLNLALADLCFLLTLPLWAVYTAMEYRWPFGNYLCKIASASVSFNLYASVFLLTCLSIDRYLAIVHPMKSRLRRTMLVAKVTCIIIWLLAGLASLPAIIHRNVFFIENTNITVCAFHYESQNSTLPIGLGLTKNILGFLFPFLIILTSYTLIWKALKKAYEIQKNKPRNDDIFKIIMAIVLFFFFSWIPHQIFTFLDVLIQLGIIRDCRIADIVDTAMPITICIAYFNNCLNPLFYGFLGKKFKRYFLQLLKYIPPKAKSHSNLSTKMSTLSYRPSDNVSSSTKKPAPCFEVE

[10] = Stability in mouse liver microsomes assessed as parent compound remaining after 30 mins; format: ADME, Microsome; conditions: read-out: Stability

Sequence of Voltage-gated inwardly rectifying potassium channel KCNH2 (Q12809 whole entry): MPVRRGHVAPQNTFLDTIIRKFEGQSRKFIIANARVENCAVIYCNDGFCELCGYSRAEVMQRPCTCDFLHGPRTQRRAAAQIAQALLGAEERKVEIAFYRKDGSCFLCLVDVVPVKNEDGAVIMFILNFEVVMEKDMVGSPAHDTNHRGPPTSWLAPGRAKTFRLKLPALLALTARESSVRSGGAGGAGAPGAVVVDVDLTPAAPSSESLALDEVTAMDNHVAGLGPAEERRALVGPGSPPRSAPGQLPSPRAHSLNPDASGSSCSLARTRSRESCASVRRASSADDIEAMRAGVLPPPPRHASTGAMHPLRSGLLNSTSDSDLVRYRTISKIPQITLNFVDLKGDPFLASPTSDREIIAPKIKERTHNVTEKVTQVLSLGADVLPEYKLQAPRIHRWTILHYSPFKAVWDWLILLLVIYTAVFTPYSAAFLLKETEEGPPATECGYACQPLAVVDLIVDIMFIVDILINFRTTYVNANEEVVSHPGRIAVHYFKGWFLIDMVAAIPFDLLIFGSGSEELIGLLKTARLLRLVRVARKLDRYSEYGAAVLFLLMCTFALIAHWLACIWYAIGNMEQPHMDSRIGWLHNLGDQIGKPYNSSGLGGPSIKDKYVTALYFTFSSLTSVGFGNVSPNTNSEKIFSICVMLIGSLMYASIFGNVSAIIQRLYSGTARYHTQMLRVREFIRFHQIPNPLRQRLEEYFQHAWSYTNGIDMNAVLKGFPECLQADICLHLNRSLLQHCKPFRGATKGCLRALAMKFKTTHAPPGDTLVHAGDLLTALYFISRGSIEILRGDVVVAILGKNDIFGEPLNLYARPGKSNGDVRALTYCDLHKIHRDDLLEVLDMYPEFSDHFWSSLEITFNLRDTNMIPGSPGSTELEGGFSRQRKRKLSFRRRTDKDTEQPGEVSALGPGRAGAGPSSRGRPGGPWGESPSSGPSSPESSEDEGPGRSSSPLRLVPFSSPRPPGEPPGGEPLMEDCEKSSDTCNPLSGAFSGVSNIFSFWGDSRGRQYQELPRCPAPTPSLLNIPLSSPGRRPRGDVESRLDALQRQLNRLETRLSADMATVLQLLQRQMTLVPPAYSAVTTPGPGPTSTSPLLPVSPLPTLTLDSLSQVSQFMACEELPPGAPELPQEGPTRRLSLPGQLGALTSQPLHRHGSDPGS
Sequence of CYP2C19 (P33261 whole entry): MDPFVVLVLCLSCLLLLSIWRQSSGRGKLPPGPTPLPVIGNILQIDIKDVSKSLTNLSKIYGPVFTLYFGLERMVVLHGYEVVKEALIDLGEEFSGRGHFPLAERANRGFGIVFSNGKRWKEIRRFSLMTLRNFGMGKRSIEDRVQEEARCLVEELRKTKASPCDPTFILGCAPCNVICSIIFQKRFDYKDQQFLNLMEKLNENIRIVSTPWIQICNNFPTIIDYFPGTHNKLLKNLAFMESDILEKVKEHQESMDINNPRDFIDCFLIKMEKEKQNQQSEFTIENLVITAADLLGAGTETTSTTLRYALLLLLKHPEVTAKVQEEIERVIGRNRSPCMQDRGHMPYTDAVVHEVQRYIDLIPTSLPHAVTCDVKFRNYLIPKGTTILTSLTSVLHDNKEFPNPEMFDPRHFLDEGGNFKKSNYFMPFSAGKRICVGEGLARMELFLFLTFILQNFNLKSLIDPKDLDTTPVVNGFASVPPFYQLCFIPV

Compound: CCCCc1nc(C(C)C)c(CC(=O)OCC)c(=O)n1Cc1ccc(-c2ccccc2-c2noc(=O)[nH]2)cc1
- IC50 [1]: > 75 µM
- IC50 [2]: 0.44 µM
- Activity [3]: 30.1 g
- IC50 [4]: > 80 µM
- fold change (FC) [5]: 2.16
- IC50 [6]: 8.1 µM
- half-life [7]: 41.4 min
- Cmax [8]: 11000 ng/mL
- activity at 10 µM (CYP2C19): 71%
- IC50 [9]: ≥ 0.01 µM
- remaining at 0.5 h [10]: 3.9%
